For the first assay, the system named is IL-1β production in PMA-differentiated THP-1 cells. In words: IL-1β production in PMA-differentiated THP-1 cells stimulated with gramicidin (hTHP-1 assay containing 2% fetal bovine serum). As to conditions: Homo sapiens, THP-1, Table B1; 2% fetal bovine serum; cells printed as numeric bound; read-out: hTHP-1 IC50 (Average IC50 of compounds in hTHP-1 assay). The class given is cell-based, human. The gist of the method: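 THP-1 cells were differentiated with PMA 20 ng/ml for 16-18 h, then plated at 50,000 cells/well in RPMI with 2% FBS. They were preincubated 1 h with compound (100–0.0017 μM final, 0.37% DMSO), then stimulated with gramicidin 5 μM for 2 h. Supernatant IL-1β was measured by HTRF.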
Take `CC(C)c1cc(CCC2CCOCC2)cc(C(C)C)c1CC(=O)N=[S@](N)(=O)c1cc(C(C)(C)O)n(-c2ccccc2)n1` (single isomer, unassigned) [Example 235, (S) or (R)-N-(amino(5-(2-hydroxypropan-2-yl)-1-phenyl-1H-pyrazol-3-yl)(oxo)-λ^6-2-(2,6-diisopropyl-4-(2-(tetrahydro-2H-pyran-4-yl)ethyl)phenyl)acetamide]: the concentration for half-maximal inhibition (IC50) was more than 30 µM.

In the case of `NS(=O)(=NC(=O)Cc1c2c(cc3c1CCC3)CCC2)c1cnn2c1OCCC2` (single isomer, unassigned) [Example 269, (R) or (S)-N-(amino(6,7-dihydro-5H-pyrazolo[5,1-b][1,3]oxazin-3-yl)(oxo)-λ^6-sulfaneylidene)-2-(1,2,3,5,6,7-hexahydro-s-indacen-4-yl)acetamide], the IC50 is more than 30 µM.

As for `COCc1cc(C(C)C)c(CC(=O)N=S(N)(=O)c2ncc(C(C)(C)O)s2)c(C(C)C)n1` (single isomer, unassigned) [Example 273, (S) or (R)-N-(amino (5-(2-hydroxypropan-2-yl)thiazol-2-yl)(oxo)-λ^6-sulfaneylidene)-2-(2,4-diisopropyl-6-(methoxymethyl)pyridin-3-yl)acetamide], the IC50 is more than 30 µM.

With `CC(C)c1cc(C#CC2CCOCC2)cc(C(C)C)c1CC(=O)N=S(N)(=O)c1cc(C(C)(C)O)n(-c2ccccc2)n1` (single isomer, unassigned) [Example 278, (S) or (R)-N-(amino(5-(2-hydroxypropan-2-yl)-1-phenyl-1H-pyrazol-3-yl)(oxo)-λ^6-sulfaneylidene)-2-(2,6-diisopropyl-4-((tetrahydro-2H-pyran-4-yl)ethynyl)phenyl)acetamide], the half-maximal inhibitory concentration (IC50) was more than 30 µM.

On to `CC(C)c1cc(C#CC2CCCCC2)cc(C(C)C)c1CC(=O)N=S(N)(=O)c1cc(C(C)(C)O)n(-c2ccccc2)n1` (single isomer, unassigned) [Example 280, (S) or (R)-N-(amino (5-(2-hydroxypropan-2-yl)-1-phenyl-1H-pyrazol-3-yl)(oxo)-λ^6-sulfaneylidene)-2-(4-(cyclohexylethynyl)-2,6-diisopropylphenyl) acetamide], for which the IC50 is more than 30 µM.

With `CC(C)c1cc(CCC2CCCCC2)cc(C(C)C)c1CC(=O)N=S(N)(=O)c1cc(C(C)(C)O)n(-c2ccccc2)n1` (single isomer, unassigned) [Example 282, (S) or (R)-N-(amino(5-(2-hydroxypropan-2-yl)-1-phenyl-1H-pyrazol-3-yl)(oxo)-λ^6-sulfaneylidene)-2-(4-(2-cyclohexylethyl)-2,6-diisopropylphenyl) acetamide], the 50% inhibitory concentration (IC50) was more than 30 µM.

Turning to `CC(C)c1cc(COC2CCCC2)cc(C(C)C)c1CC(=O)N=S(N)(=O)c1cc(C(C)(C)O)n(-c2ccc(F)cc2)n1` (single isomer, unassigned) [Example 284, (S) or (R)-N-(amino(1-(4-fluorophenyl)-5-(2-hydroxypropan-2-yl)-1H-pyrazol-3-yl)(oxo)-λ^6-sulfaneylidene)-2-(4-((cyclopentyloxy)methyl)-2,6-diisopropylphenyl) acetamide], the half-maximal inhibitory concentration (IC50) was more than 30 µM.

Staying with this assay, now noted: Homo sapiens, THP-1, Table B1; 2% fetal bovine serum; class symbols; read-out: hTHP-1 IC50 (Average IC50 of compounds in hTHP-1 assay).
Take `CC(C)c1cc(CCC2CCOCC2)cc(C(C)C)c1CC(=O)N=S(N)(=O)c1cc(C(C)(C)O)n(-c2ccccc2)n1` (single isomer, unassigned) [Example 234, (R) or (S)—N-(amino(5-(2-hydroxypropan-2-yl)-1-phenyl-1H-pyrazol-3-yl)(oxo)-λ^6-sulfaneylidene)-2-(2,6-diisopropyl-4-(2-(tetrahydro-2H-pyran-4-yl)ethyl)phenyl)acetamide]: the IC50 lay within 5 to 30 µM.

Take `NS(=O)(=NC(=O)Cc1c2c(cc3c1CCC3)CCC2)c1cnn2c1OCCC2` (single isomer, unassigned) [Example 270, (S) or (R)-N-(amino(6,7-dihydro-5H-pyrazolo[5,1-b][1,3]oxazin-3-yl)(oxo)-λ^6-sulfaneylidene)-2-(1,2,3,5,6,7-hexahydro-s-indacen-4-yl)acetamide]: the IC50 lay in the range of 5 to 30 µM.

Regarding `COCc1cc(C(C)C)c(CC(=O)N=S(N)(=O)c2ncc(C(C)(C)O)s2)c(C(C)C)n1` (single isomer, unassigned) [Example 274, (R) or (S)-N-(amino (5-(2-hydroxypropan-2-yl)thiazol-2-yl)(oxo)-λ^6-sulfaneylidene)-2-(2,4-diisopropyl-6-(methoxymethyl)pyridin-3-yl)acetamide], the IC50 lay within 1 to 5 µM.

As to `CC(C)c1cc(C#CC2CCOCC2)cc(C(C)C)c1CC(=O)N=S(N)(=O)c1cc(C(C)(C)O)n(-c2ccccc2)n1` (single isomer, unassigned) [Example 277, (R) or (S)-N-(amino (5-(2-hydroxypropan-2-yl)-1-phenyl-1H-pyrazol-3-yl)(oxo-λ^6-sulfaneylidene)-2-(2,6-diisopropyl-4-((tetrahydro-2H-pyran-4-yl)ethynyl)phenyl)acetamide], the IC50 fell in the range of 0.2 to 1 µM.

On to `CC(C)c1cc(C#CC2CCCCC2)cc(C(C)C)c1CC(=O)N=S(N)(=O)c1cc(C(C)(C)O)n(-c2ccccc2)n1` (single isomer, unassigned) [Example 279, (R) or (S)-N-(amino(5-(2-hydroxypropan-2-yl)-1-phenyl-1H-pyrazol-3-yl)(oxo)-λ^6-sulfaneylidene)-2-(4-(cyclohexylethynyl)-2,6-diisopropylphenyl) acetamide], for which the IC50 was in the range of 1 to 5 µM.

`CC(C)c1cc(CCC2CCCCC2)cc(C(C)C)c1CC(=O)N=S(N)(=O)c1cc(C(C)(C)O)n(-c2ccccc2)n1` (single isomer, unassigned) [Example 281, (R) or (S)-N-(amino(5-(2-hydroxypropan-2-yl)-1-phenyl-1H-pyrazol-3-yl)(oxo)-λ^6-sulfaneylidene)-2-(4-(2-cyclohexylethyl)-2,6-diisopropylphenyl) acetamide]: the IC50 lay in the range of 5 to 30 µM.

Turning to `CC(C)c1cc(COC2CCCC2)cc(C(C)C)c1CC(=O)N=S(N)(=O)c1cc(C(C)(C)O)n(-c2ccc(F)cc2)n1` (single isomer, unassigned) [Example 283, (R) or (S)-N-(amino(1-(4-fluorophenyl)-5-(2-hydroxypropan-2-yl)-1H-pyrazol-3-yl)(oxo)-λ^6-sulfaneylidene)-2-(4-((cyclopentyloxy)methyl)-2,6-diisopropylphenyl) acetamide], the 50% inhibitory concentration (IC50) fell in the range of 0.2 to 1 µM.

As to `CC(C)c1cc(C(=O)CC2CCCCC2)cc(C(C)C)c1CC(=O)N=S(N)(=O)c1cc(C(C)(C)O)n(-c2ccccc2)n1` (single isomer, unassigned) [Example 285, (R) or (S)-N-(amino(5-(2-hydroxypropan-2-yl)-1-phenyl-1H-pyrazol-3-yl)(oxo)-λ^6-sulfaneylidene)-2-(4-(2-cyclohexylacetyl)-2,6-diisopropylphenyl) acetamide], the IC50 fell in the range of 1 to 5 µM.

Staying with this assay, now noted: Table B1; 2% fetal bovine serum; class symbols; read-out: hTHP-1 IC50 (Average IC50 of compounds in hTHP-1 assay).
For `CC(C)c1cc(C(F)F)cc(C(C)C)c1CC(=O)N=S(N)(=O)c1ccc(CN(C)C)cc1F` (single isomer, unassigned) [Example 215, (S) or (R)-N-(amino(4-((dimethylamino)methyl)-2-fluorophenyl) (oxo)-λ^6-sulfaneylidene)-2-(4-(difluoromethyl)-2,6-diisopropylphenyl) acetamide], the IC50 was in the range of 1 to 5 µM.

In the case of `CC(C)c1cc2c(c(C(C)C)c1CC(=O)N=S(N)(=O)c1cc(C(C)(C)O)cs1)COC2` (single isomer, unassigned) [Example 216, (R) or (S)-N-(amino (4-(2-hydroxypropan-2-yl)thiophen-2-yl)(oxo)-λ^6-sulfaneylidene)-2-(4,6-diisopropyl-1,3-dihydroiso-benzofuran-5-yl)acetamide], the IC50 was in the range of 0.2 to 1 µM.

Regarding `CC(C)c1cc2c(c(C(C)C)c1CC(=O)N=S(N)(=O)c1cc(C(C)(C)O)cs1)COC2` (single isomer, unassigned) [Example 217, (S) or (R)-N-(amino (4-(2-hydroxypropan-2-yl)thiophen-2-yl)(oxo)-λ^6-sulfaneylidene)-2-(4,6-diisopropyl-1,3-dihydro-isobenzofuran-5-yl)acetamide], the concentration for half-maximal inhibition (IC50) is 5 to 30 µM.

On to `CC(C)c1cc(-c2ccc3c(c2)CCOC3)cc(C(C)C)c1CC(=O)N=S(N)(=O)c1sc(C(C)(C)O)nc1CO` (single isomer, unassigned) [Example 271, (R) or (S)-N-(amino(4-(hydroxymethyl)-2-(2-hydroxypropan-2-yl)thiazol-5-yl)(oxo)-λ^6-sulfaneylidene)-2-(4-(isochroman-6-yl)-2,6-diisopropylphenyl) acetamide], for which the IC50 fell in the range of 0.2 to 1 µM.

In the case of `CC(C)c1cc(-c2ccc3c(c2)CCOC3)cc(C(C)C)c1CC(=O)N=S(N)(=O)c1sc(C(C)(C)O)nc1CO` (single isomer, unassigned) [Example 272, (S) or (R)-N-(amino(4-(hydroxymethyl)-2-(2-hydroxypropan-2-yl)thiazol-5-yl)(oxo)-λ^6-sulfaneylidene)-2-(4-(isochroman-6-yl)-2,6-diisopropylphenyl) acetamide], the IC50 lay within 5 to 30 µM.

On to `CC(C)c1cc(C#N)c(F)c(C(C)C)c1CC(=O)N=S(N)(=O)c1cc(C(C)(C)O)n(-c2ccccc2)n1` (single isomer, unassigned) [Example 275, (R) or (S)-N-(amino (5-(2-hydroxypropan-2-yl)-1-phenyl-1H-pyrazol-3-yl)(oxo)-λ^6-sulfaneylidene)-2-(4-cyano-3-fluoro-2,6-diisopropylphenyl) acetamide], for which the half-maximal inhibitory concentration (IC50) fell in the range of 0.2 to 1 µM.

In the case of `CC(C)c1cc(C#N)c(F)c(C(C)C)c1CC(=O)N=S(N)(=O)c1cc(C(C)(C)O)n(-c2ccccc2)n1` (single isomer, unassigned) [Example 276, (S) or (R)-N-(amino (5-(2-hydroxypropan-2-yl)-1-phenyl-1H-pyrazol-3-yl)(oxo)-λ^6-sulfaneylidene)-2-(4-cyano-3-fluoro-2,6-diisopropylphenyl) acetamide], the IC50 was in the range of 5 to 30 µM.

A word on the IC50: it is the point on the concentration scale where inhibition reaches its midpoint.

The values are drawn from US20230059136A1, “THE COMPOUNDS AND COMPOSITIONS FOR TREATING CONDITIONS ASSOCIATED WITH NLRP ACTIVITY” (Novartis AG, priority 2018, published 2023).
